The test system of assay [1] is human ovarian carcinoma xenografts. The following applies: mice bearing human ovarian carcinoma xenografts; cited from earlier work.
Assay [2] concerns the target T1, SCD (stromelysin-1 catalytic domain) (Homo sapiens, UniProt P08254).
T1 construct: SCD (stromelysin-1 catalytic domain); made in house; host or cells: Escherichia coli
Briefly: IC50 versus SCD with thiopeptolide substrate Ac-Pro-Leu-Gly-thioester-Leu-Leu-Gly-OEt. In kind it is biochemical. How it is done: (§1) Experiments were carried out with the catalytic domains of the proteinases. […] IC50 values were determined using a thiopeptolide substrate, Ac-Pro-Leu-Gly-thioester-Leu-Leu-Gly-OEt (Ye Q. -Z., Johnson L. L., Hupe D. J., and Baragi V., "Purification and Characterization of the Human Stromelysin Catalytic Domain Expressed in Escherichia coli", Biochemistry, 1992;31:11231-11235).

In assay [3] the target is GCD (recombinant gelatinase A catalytic domain). Briefly: IC50 versus GCD with thiopeptolide substrate Ac-Pro-Leu-Gly-thioester-Leu-Leu-Gly-OEt. The format is biochemical. How it is done: as §1
The subject of assay [4] is bovine nasal and pig articular cartilage. The following applies: bovine nasal and pig articular cartilage models for arthritis; cited from earlier work.

What is called IC50 is the concentration that gives 50% inhibition.

T1 sequence (P08254 100-272 limits assumed): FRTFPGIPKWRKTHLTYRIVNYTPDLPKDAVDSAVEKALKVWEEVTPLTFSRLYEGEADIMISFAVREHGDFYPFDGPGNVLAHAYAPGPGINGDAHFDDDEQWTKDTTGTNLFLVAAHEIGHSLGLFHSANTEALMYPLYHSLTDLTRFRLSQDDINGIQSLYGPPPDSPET

On to `CNC(=O)[C@H](Cc1ccccc1)NC(=O)[C@H](CC(C)C)[C@H](CSc1cccs1)C(=O)NO` [BB-94], for which the “tumor burden and survival” value in assay [1] is “decreased the tumor burden and prolonged the survival”.

In the case of `O=C(O)CC(F)(F)C(=O)c1ccc2oc3ccccc3c2c1` [Example 1, 4-Dibenzofuran-2-yl-3,3-difluoro-4-oxo-butyric acid], the IC50 in assay [2] is 24 µM; in assay [3], 1.95 µM. As for `O=C(CC(F)(F)C(=O)O)c1ccc2oc3ccccc3c2c1` [Example 2, 4-Dibenzofuran-2-yl-2,2-difluoro-4-oxo-butric acid], the IC50 in assay [2] was above 100 µM; in assay [3], 93.6 µM. “TIMP-1: natural endogenous inhibitors of MMPs (TIMPs)”: in assay [4], the “formation of collagen fragments and proteoglycan fragments” value was “prevented the formation of collagen fragments, but not proteoglycan fragments”.

Values taken from patent US6037361A, “Fluorinated butyric acids and their derivatives as inhibitors of matrix metalloproteinases” (Warner-Lambert Company, priority 1998, dated 2000).
